Tested on: TNFα, IL2, iNOS gene expression
Experiment: Cytokine and iNOS gene expression in spleen of EAE mice (quantitative RT-PCR)
Assay type: in vivo
Settings: end of the experiment, treated vs placebo
Description: Brains and spinal cords from mice obtained at the time of death were homogenized in RNA lysis buffer. Total RNA was extracted using the RNeasy Mini Kit (Qiagen, Chatwworth, Calif.) isolation system, including DNase treatment using the RNase-Free DNase Set (Quiagen). Total RNA (35 μg) was reverse transcribed using the Reverse Transcription System (High Capacity cDNA Archive Kit; Applied Biosystems, Foster City, Calif.). The real time reaction was conducted at 25° C. for 10 minutes, followed by 37° C. for 2 hours, and finally stored at 4° C. Primers and target-specific fluorescence-labeled TaqMan probes were purchased from Applied Biosystems (TaqMan Gene Expression assays). We used the TaqMan Universal Master Mix (Applied biosystems). Amplification of complementary DNA was performed on a DNA Engine Opticon 2 Real-Time System (MJ Research, Watertown, Mass.) using 0.9 μM for each primer and 0.25 μM for the probe and 20 ng complementary DNA. The reaction conditions were an initial 2 minutes at 50° C., followed by 10 minutes at 95° C. and 40 cycles of 15 seconds at 95° C. and 1 minute at 60° C. Each sample was run in triplicate, and in each plate the target and the endogenous control were amplified in different wells. The expression of the gene tested was quantified relative to the level of the housekeeping gene 18rRNA (Palacios et al., 2008).
To assess which was the effect of this compound in the peripheral immune response, the proliferative response against the immunizing antigen (MOG) in splenocytes of naïve animals and the cytokine profile in spleen cells from placebo and treated animals were evaluated. […] Gene expression of interleukin2 (IL2), Interferon γ (IFNγ), tumor necrosis factor α (TNFα), inducible nitric oxide synthase (iNOS) and interleukin 10 (IL10) was investigated by quantitative reverse transcriptase PCR at the end of the experiment in splenocytes from placebo and treated animals.

CC(C)CCN(CC(=O)N(CCCN1CCCC1=O)CC(N)=O)C(=O)CNCCc1ccccc1F [N35-4-8C, [N-(2-(2′-Fluorophenyl)ethyl)glycyl]-[N-(3-methylbutyl)glycyl]-N-[3-(2′-oxopyrrolidinyl)propyl]glycinamide]
significant decrease: gene expression of IL2 in spleen | gene expression of TNFα in spleen | gene expression of iNOS in spleen
